Patent US5859042A, “Five membered heterocyclic compounds” (Ono Pharmaceutical Co., Ltd., priority 1997, dated 1999)

Biological target: T1, 5α-reductase (Homo sapiens, UniProt P31213)
T1 construct: Frozen human prostates were thawed on ice and minced with scissors into small pieces; from tissue; host or cells: human prostate (frozen), washed 140,000×g membrane pellet
T1 sequence (P31213 1-254): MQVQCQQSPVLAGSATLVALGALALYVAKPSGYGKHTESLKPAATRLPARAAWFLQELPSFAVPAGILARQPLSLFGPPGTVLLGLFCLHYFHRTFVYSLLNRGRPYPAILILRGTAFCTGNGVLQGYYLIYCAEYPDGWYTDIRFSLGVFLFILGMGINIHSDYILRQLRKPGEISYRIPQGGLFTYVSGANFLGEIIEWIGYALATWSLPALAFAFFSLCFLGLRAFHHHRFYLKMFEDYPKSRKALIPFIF
Assay: inhibitory activity on 5α-reductase from human prostates (conversion of 14C-testosterone to DHT)
Assay type: biochemical
Conditions: human prostatic 5α-reductase, pH 5.0, 1 μM 14C-testosterone, 1 mM NADPH, 30 min at 37° C.
Description: (1) Preparation of 5α-reductase from human prostates
Frozen human prostates were thawed on ice and minced with scissors into small pieces (~1 mm^3). The minced tissue was homogenized in 3 tissue volumes of ice cold medium A (20 mM potassium phosphate, pH 6.5, containing 0.32M sucrose, 1 mM dithiothreitol, 50 μM NADPH, 1 mM EDTA), first with a Brinkmann Polytron and then with a Dounce homogenizer. The homogenate was filtered through gauze and the filtrate was centrifuged at 140,000×g at 4° C. for 60 min. The resulting pellet was washed with 3 tissue volumes of medium A. The washed pellet was suspended (5-10 mg protein/ml) in 20 mM potassium phosphate, pH 6.5, containing 20% glycerol, 50 μM NADPH and 1 mM dithiothreitol. An appropriate aliquot of this suspension was used as the source of 5α-reductase.
5α-reductase activity was determined by following the conversion of testosterone to 5α-dihydrotestosterone (DHT). In brief, buffer (100 mM Tris-citrate, pH5.0), 1 mM NADPH and human prostatic 5α-reductase(0.4-1 mg protein) were placed in test tubes. After addition of test compounds (dissolved in 5 μl in DMSO or EtOH) or solvents to the tubes, the solutions were preincubated at room temperature for 10 min. The reactions were initiated by addition of 1 μM ^14 C-testosterone to a final volume of 0.5 ml. Following 30 min incubation at 37° C., the reactions were stopped by addition of 5 ml dichloromethane. After centrifugation at 1000 rpm for 5 min, the organic phase (bottom) was collected and the volume reduced to ~100 μl in a 42° C. water bath. The solutions were applied to silica plates and the plates were developed in chloroform/ethyl acetate (3:1) at room temperature. The radioactivity profiles were determined by a BIOSCAN imaging scanner. The silica in sections identified by BIOSCAN and counted in a scintillation counter. Enzyme activity was calculated from the percent of recovered radio label converted to the product DHT.

Row | IC50 (Table 1) | IC50 (Table 2) | Structure (SMILES)
1 | 24 nM | – | CCc1ccc(-c2ccc(C(=O)c3ccc(CC(=O)O)n3C)cc2)cc1 [Example 2]
2 | 20 nM | – | Cn1c(CC(=O)O)ccc1C(=O)c1ccc(C2CCCCC2)cc1 [Example 3(1)]
3 | 19 nM | – | Cn1c(CC(=O)O)ccc1C(=O)c1ccc(-c2ccccc2)cc1 [Example 3(2)]
4 | 210 nM | – | Cn1c(CC(=O)O)ccc1C(=O)c1ccc(C(=O)c2ccccc2)cc1 [Example 3(5)]
5 | 24 nM | – | Cn1c(CC(=O)O)ccc1C(=O)c1ccc(OCc2ccccc2)cc1 [Example 3(8)]
6 | 170 nM | – | Cc1cc(OCc2ccccc2)ccc1C(=O)c1ccc(CC(=O)O)n1C [Example 3(16)]
7 | 450 nM | – | O=C(O)Cc1ccc(C(=O)c2ccc(-c3ccccc3)cc2)s1 [Example 3(18)]
8 | 130 nM | – | Cn1c(CC(=O)O)ccc1C(=O)c1ccc2c(c1)C(=O)c1ccccc1-2 [Example 3(20)]
9 | 840 nM | – | Cn1c(CC(=O)O)ccc1C(=O)CCCCc1ccccc1 [Example 3(22)]
10 | 98 nM | – | Cn1c(CC(=O)O)ccc1C(=O)c1ccc(CSc2ccccc2)cc1 [Example 3(41)]
11 | 56 nM | – | Cn1c(CC(=O)O)ccc1C(=O)c1ccc(/C=C/c2ccccc2)cc1 [Example 3(47)]
12 | 160 nM | – | Cn1c(CC(=O)O)ccc1C(=O)c1ccc(-n2cccc2)cc1 [Example 3(50)]
13 | 23 nM | – | Cn1c(CC(=O)O)ccc1C(=O)c1ccc(-c2cccs2)cc1 [Example 3(54)]
14 | 24 nM | – | Cn1c(CC(=O)O)ccc1C(=O)c1ccc(-c2ccc(Br)s2)cc1 [Example 3(55)]
15 | 41 nM | – | Cn1c(CC(=O)O)ccc1C(=O)c1ccc(-c2ccc(F)cc2)cc1 [Example 3(62)]
16 | 170 nM | – | Cn1c(C(=O)O)ccc1C(=O)c1ccc(-c2ccccc2)cc1 [Example 3(70)]
17 | 250 nM | – | Cn1c(CC(=O)O)ccc1C(=O)C1CCC(c2ccccc2)CC1 (stereo not drawn) [Example 3(77)]
18 | 630 nM | – | Cn1c(CC(=O)O)ccc1C(=O)c1ccc(-c2cc(Cl)cc(Cl)c2)cc1 [Example 3(82)]
19 | 92 nM | – | Cc1cc(C(=O)c2ccc(CC(=O)O)n2C)ccc1-c1ccccc1 [Example 3(83)]
20 | – | 170 nM | CCCCCCOc1ccc(C(=O)c2ccc(CC(=O)O)n2C)cc1 [hexyloxy]
21 | – | 440 nM | Cn1c(CC(=O)O)ccc1C(=O)c1ccc(I)cc1 [iodo]
22 | – | 74 nM | CC(C)Cc1ccc(C(=O)c2ccc(CC(=O)O)n2C)cc1 [isobutyl]
23 | – | 400 nM | Cn1c(CC(=O)O)ccc1C(=O)c1ccc(C(C)(C)C)cc1 [t-butyl]

Row | Structure (SMILES) | IC50 (Table 1) | IC50 (Table 2)
24 | Cc1ccc(C(=O)c2ccc(CC(=O)O)n2C)cc1 [methyl] | – | 8000 nM
